Residues, ends and D or L forms follow the SMILES beside them.
Tests used:
[1] = safety testing of cosmetic grade cytomodulin as a topically administered ingredient
Description: In particular, the heptapeptide TGF-β mimic, A-N-V-A-E-N-A (SEQ ID NO: 1), termed “cytomodulin,” has been examined and tested as an ingredient in compositions with the potential for improving the condition of skin upon application; a cosmetic grade cytomodulin was first synthesized according to U.S. Pat. No. 5,661,127 and subsequently tested to ensure both its efficacy and safety as a topically administered ingredient.

TGF-β = TGF-β like activity of cytomodulin analogs; settings: compared with TGF-β and cytomodulin
Description: As first introduced in the present inventor's U.S. Pat. No. 5,780,436, which is hereby incorporated by reference in its entirety, using cytomudulin as a guide, two initial cytomodulin analogs, L-I-A-E-A-K (SEQ ID NO: 2) and L-I-A-P-E-A (SEQ ID NO: 3) were designed, synthesized, and tested. In both peptides, -V-A-, was replaced by -I-A- and the first two N-terminal amino acid sequence of cytomodulin was replaced with leucine. In SEQ ID NO: 2, glutamic acid is at position i+3 since it is the first side-chain after the β-bend structure. In SEQ ID NO: 3, proline is at position i+3.
Analogs of SEQ ID NO: 2 and SEQ ID NO: 3 were made to further probe the sequence requirements for TGF-β like activity. To that end, the following peptides were made:
SEQ ID NOs 4-6, which are minor variants of SEQ ID NO: 2, mimicked the biological activities of TGF-β and cytomodulin. […] Alternatively, all peptides with the sequences represented by SEQ ID NOs: 9-16 mimicked at least one biological activity of TGF-β to some degree.

| Molecule | toxicity [1] | TGF-β like activity (TGF-β) |
| --- | --- | --- |
| CC(C)[C@H](NC(=O)[C@H](CC(N)=O)NC(=O)[C@H](C)N)C(=O)N[C@@H](C)C(=O)N[C@@H](CCC(=O)O)C(=O)N[C@@H](CC(N)=O)C(=O)N[C@@H](C)C(=O)O [cytomodulin, A-N-V-A-E-N-A] (H-ANVAENA-OH) | completely non-toxic | – |
| L-I-A-E-A-K (LIAEAK; TGF-beta mimic) [SEQ ID NO: 2, cytomodulin analog] | – | at least as much TGF-β like activity as cytomodulin |
| L-I-A-P-E-A (LIAPEA; TGF-beta mimic) [SEQ ID NO: 3, cytomodulin analog] | – | at least as much TGF-β like activity as cytomodulin |
